According to US11242334B2, “Heterocyclic compounds as kinase inhibitors, compositions comprising the heterocyclic compound, and methods of use thereof” (JS INNOPHARM (SHANGHAI) LTD, priority 2017, dated 2022):

Experiments:
human ERK2 = molecular target: T1, human ERK2 (Homo sapiens, UniProt P28482); assay: LanthaScreen TR-FRET enzymatic assay, ERK2; settings: IC50 values of ERK2 biochemical activity; 5 μM ATP, 400 nM ATF2-GFP substrate
T1 construct: recombinantly expressed as GST-tagged full-length protein purified from E. coli; GST; purchased Invitrogen PV3311; host or cells: E. coli
T1 sequence (P28482 whole entry): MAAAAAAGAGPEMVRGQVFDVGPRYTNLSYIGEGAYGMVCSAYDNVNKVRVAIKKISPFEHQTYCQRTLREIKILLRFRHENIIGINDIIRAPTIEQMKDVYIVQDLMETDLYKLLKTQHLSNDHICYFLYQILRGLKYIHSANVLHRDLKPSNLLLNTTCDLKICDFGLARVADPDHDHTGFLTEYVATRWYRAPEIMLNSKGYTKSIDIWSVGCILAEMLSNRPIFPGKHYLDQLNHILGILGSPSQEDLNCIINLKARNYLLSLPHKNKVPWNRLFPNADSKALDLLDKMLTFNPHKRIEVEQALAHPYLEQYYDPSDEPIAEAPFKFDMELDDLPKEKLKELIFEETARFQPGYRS
Summary of the method: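 IC50 values were fitted from percent of DMSO control using a 520/495 nm TR-FRET ratio with terbium anti-pATF2 (pThr71), read after an EDTA stop. The kinase reaction lasted one hour at room temperature, following 15-min compound pre-treatment. It contained 5 μM ATP, 400 nM ATF2-GFP substrate and 20 ng/ml in vitro-activated GST-ERK2.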

Colo205 cell line = assay: Colo205 cell proliferation assay (MTT assay, WST-8 readout); format: cell-based; settings: Homo sapiens; IC50 values of growth inhibition in Colo 205 cells; 72 hours
Summary of the method: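 Growth-inhibition IC50 was derived from WST-8 absorbance at 450 nm (2 h development) after 72 h compound exposure at 37° C. Exposure used final 50 μM–0.005 μM compound in 0.5% DMSO. Colo205 cells had been plated at 5,000/well in RPMI-1640 plus 10% FBS and allowed 24 h to attach.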

Row | Compound | IC50 (human ERK2) [nM] | IC50 (Colo205 cell line) [nM]
1 | O=c1cc(-c2ccc3[nH]nc(C4CCOCC4)c3c2)ccn1[C@H](CO)c1cc(F)cc(Br)c1 [Example 145, (S)-1-(1-(3-bromo-5-fluorophenyl)-2-hydroxyethyl)-4-(3-(tetrahydro-2H-pyran-4-yl)-1H-indazol-5-yl)pyridin-2(1H)-one] | < 10 | 500 to 1000
2 | CC(c1cc(F)cc(Br)c1)n1ccc(-c2ccc3[nH]nc(C4CCOCC4)c3c2)cc1=O (stereo not shown) [Example 146, 1-(1-(3-bromo-5-fluorophenyl)ethyl)-4-(3-(tetrahydro-2H-pyran-4-yl)-1H-indazol-5-yl)pyridin-2(1H)-one] | < 10 | 1000 to 5000
3 | O=c1cc(-c2ccc3[nH]nc(C4CCOCC4)c3c2)ccn1Cc1ccnc(C(F)(F)F)c1 [Example 147, 4-(3-(tetrahydro-2H-pyran-4-yl)-1H-indazol-5-yl)-1-((2-(trifluoromethyl)pyridin-4-yl)methyl)pyriidn-2(1H)-one] | < 10 | ≤ 500
4 | O=c1cc(-c2ccc3[nH]nc([C@H]4CC[C@H](O)CC4)c3c2)ccn1Cc1ccnc(C(F)(F)F)c1 [Example 148, 4-(3-((1r,4r)-4-hydroxycyclohexyl)-1H-indazol-5-yl)-1-((2-(trifluoromethyl)pyridin-4-yl)methyl)pyridin-2(1H)-one] | < 10 | 1000 to 5000
5 | O=c1cc(-c2ccc3[nH]nc([C@H]4CC[C@@H](O)CC4)c3c2)ccn1Cc1ccnc(C(F)(F)F)c1 [Example 149, 4-(3-((1s,4s)-4-hydroxycyclohexyl)-1H-indazol-5-yl)-1-((2-(trifluoromethyl)pyridin-4-yl)methyl)pyridin-2(1H)-one] | 10 to 50 | > 5000
